Where “and” joins values, the source holds several entries; their conditions need not be identical. Equal values may be shown once. Read-outs that look alike come from different tables or passages of the source.
Assays:
[1] = target: FynT enzyme (Homo sapiens (Human), UniProt P06241); assay: FynT enzyme activity (IMAP fluorescence polarization assay); assay type: biochemical; conditions: 60 min pre-incubation, 0.2 μM ATP
How it was run: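 Human FynT pre-incubated with compounds 60 min at room temperature, then reacted 2 h at room temperature with fluorescein-labelled p34cdc2 peptide (100 nM final). Stopped with IMAP binding solution; fluorescence polarization read after 60 min. Activity as % of ±ATP control difference; EC50 by curve fitting.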

[2] = target: Btk enzyme (His-Btk) (Homo sapiens (Human), UniProt Q06187); assay: Btk enzyme activity (IMAP fluorescence polarization assay)
Chain of Btk enzyme (His-Btk) (Q06187 whole entry): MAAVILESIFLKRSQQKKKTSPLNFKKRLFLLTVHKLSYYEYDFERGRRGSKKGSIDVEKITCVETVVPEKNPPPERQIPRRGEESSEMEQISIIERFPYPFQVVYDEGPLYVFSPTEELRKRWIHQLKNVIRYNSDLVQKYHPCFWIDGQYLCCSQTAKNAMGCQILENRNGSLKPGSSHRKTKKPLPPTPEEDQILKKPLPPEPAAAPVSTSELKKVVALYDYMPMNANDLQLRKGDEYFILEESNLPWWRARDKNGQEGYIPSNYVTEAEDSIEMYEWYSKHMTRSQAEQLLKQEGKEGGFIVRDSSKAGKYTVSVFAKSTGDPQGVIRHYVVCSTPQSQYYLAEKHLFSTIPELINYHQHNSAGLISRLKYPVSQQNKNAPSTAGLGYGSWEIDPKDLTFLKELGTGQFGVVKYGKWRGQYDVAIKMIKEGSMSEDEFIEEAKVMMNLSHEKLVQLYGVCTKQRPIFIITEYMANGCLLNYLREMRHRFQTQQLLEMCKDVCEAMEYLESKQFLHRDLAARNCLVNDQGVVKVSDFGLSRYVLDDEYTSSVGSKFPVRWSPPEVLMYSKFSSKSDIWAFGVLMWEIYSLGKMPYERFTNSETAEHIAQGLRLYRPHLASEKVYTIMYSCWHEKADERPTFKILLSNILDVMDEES

[3] = target: Lck enzyme (Homo sapiens (Human), UniProt P06239); assay: Lck enzyme activity (IMAP fluorescence polarization assay)
Chain of Lck enzyme (P06239 whole entry): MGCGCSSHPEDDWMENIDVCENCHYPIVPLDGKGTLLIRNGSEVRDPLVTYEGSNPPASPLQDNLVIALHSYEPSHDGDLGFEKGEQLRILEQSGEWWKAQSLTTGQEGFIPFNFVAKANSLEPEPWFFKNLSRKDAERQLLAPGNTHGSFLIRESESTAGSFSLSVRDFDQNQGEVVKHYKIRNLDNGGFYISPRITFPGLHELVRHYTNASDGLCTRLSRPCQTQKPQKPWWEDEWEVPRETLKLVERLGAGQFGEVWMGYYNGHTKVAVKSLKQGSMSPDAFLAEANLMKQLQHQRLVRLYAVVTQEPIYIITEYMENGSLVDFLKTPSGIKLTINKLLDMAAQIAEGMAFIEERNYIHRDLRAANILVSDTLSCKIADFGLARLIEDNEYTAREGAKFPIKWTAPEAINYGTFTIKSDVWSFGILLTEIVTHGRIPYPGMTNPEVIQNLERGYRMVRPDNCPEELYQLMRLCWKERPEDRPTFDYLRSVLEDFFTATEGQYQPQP

[4] = target: Src enzyme (Homo sapiens (Human), UniProt P12931); assay: Src enzyme activity (IMAP fluorescence polarization assay); conditions: read-out: EC50 Src activity values; IMAP, 60 min pre-incubation, 4 μM ATP
Chain of Src enzyme (P12931 whole entry, looked up): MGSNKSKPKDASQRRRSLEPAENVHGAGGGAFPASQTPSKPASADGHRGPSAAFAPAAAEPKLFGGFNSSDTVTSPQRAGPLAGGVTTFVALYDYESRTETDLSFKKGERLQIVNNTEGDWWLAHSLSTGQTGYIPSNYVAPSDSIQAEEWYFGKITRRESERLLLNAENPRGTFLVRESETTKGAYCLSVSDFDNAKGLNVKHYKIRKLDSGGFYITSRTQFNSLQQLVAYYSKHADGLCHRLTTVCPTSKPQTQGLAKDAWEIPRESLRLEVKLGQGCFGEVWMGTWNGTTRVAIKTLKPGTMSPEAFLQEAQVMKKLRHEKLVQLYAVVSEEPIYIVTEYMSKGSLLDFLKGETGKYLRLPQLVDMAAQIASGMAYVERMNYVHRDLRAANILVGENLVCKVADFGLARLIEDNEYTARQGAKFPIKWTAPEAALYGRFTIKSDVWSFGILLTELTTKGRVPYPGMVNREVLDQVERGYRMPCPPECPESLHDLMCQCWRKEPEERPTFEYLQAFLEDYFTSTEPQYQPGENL

[5] = target: Lyn enzyme (Homo sapiens (Human), UniProt P07948); assay: Lyn enzyme activity (IMAP fluorescence polarization assay)
Chain of Lyn enzyme (P07948 whole entry): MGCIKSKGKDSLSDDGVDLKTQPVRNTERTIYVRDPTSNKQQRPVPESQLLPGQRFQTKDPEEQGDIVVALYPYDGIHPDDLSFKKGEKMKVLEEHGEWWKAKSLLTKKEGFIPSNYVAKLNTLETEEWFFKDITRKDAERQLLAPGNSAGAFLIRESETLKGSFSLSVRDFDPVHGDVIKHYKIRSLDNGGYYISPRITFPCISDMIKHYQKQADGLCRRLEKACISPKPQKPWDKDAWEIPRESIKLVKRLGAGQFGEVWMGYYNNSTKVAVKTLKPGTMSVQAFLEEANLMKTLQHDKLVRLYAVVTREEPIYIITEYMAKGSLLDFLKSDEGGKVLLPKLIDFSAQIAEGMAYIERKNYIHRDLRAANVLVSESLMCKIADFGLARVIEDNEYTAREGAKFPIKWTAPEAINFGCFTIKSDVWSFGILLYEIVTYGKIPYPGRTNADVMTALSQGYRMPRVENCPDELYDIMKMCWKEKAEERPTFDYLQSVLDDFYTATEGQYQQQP

[6] = IMAP, 60 min pre-incubation, 5 μM ATP, bin bound in nM
[7] = IMAP, 60 min pre-incubation, 6 μM ATP, bin bound in μM
[8] = read-out: EC50 Btk activity values, IMAP, 60 min pre-incubation, 5 μM ATP, bin bound in nM
[9] = read-out: EC50 Lck activity values, IMAP, 60 min pre-incubation, 6 μM ATP, bin bound in μM
[10] = read-out: EC50 Lyn activity values, 60 min pre-incubation, 2 μM ATP, bin bound in μM
[11] = IMAP, 60 min pre-incubation, 5 μM ATP, bin bound in μM

Chain of FynT enzyme (P06241 other isoform, or with tags, fused parts or gaps): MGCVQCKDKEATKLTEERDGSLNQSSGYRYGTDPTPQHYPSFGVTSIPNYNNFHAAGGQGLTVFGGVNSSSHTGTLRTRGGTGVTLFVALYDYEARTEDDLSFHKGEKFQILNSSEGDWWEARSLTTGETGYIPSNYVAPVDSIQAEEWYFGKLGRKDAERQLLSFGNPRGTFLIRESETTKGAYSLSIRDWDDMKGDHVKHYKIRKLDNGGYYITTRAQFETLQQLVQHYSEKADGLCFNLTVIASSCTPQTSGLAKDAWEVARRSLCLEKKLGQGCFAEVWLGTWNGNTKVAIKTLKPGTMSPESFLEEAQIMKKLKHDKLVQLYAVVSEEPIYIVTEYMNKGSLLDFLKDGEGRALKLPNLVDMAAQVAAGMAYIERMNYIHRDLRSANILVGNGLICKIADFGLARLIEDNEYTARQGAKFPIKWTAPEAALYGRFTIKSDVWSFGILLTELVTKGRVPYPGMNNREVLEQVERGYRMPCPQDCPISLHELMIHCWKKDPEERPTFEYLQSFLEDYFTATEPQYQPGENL

SMILES | EC50 [1] [nM] | EC50 [2] [nM] | EC50 Btk activity values [2, 6] [nM] | EC50 [3] [µM] | EC50 Lck activity values [3, 7] [µM] | EC50 [4] [nM] | EC50 ([5]; EC50 Lyn activity values, 60 min pre-incubation, 2 μM ATP, bin bound in nM) [nM] | EC50 ([5]; EC50 Lyn activity values, 60 min pre-incubation, 2 μM ATP, bin bound in μM) | EC50 [2, 8] [nM] | EC50 [3, 9] [µM] | EC50 [5, 10] [nM] | EC50 Btk activity values [2, 11] [nM]
CC#CC(=O)N1CCC[C@H]1c1nc(-c2ccc(C(=O)Nc3nccs3)cc2)c2c(N)nccn12 [Example 60, (S)-4-(8-amino-3-(1-but-2-ynoylpyrrolidin-2-yl)imidazo[1,5-a]pyrazin-1-yl)-N-(thiazol-2-yl)benzamide] | ≥ 1000 | 10 to 100 | <100 | 0.1 to 1 | <1 | ≥ 1000 | ≥ 100 | < 1000 nM and ≥ 1000 nM | – | – | – | –
C=CC(=O)N1CCCC[C@H]1c1nc(-c2ccc(C(=O)Nc3cc(CCC)ccn3)cc2)c2c(N)nccn12 [Example 61, (S)-4-(3-(1-acryloylpiperidin-2-yl)-8-aminoimidazo[1,5-a]pyrazin-1-yl)-N-(4-propylpyridin-2-yl)benzamide] | ≥ 1000 | – | – | – | – | ≥ 1000 | – | – | < 10 | ≥ 1 | ≥ 1000 | –
C=CC(=O)N1CCC[C@H]1c1nc(-c2ccc(C(=O)Nc3cc(C(F)(F)F)ccn3)cc2)c2c(N)nccn12 [Example 62, (S)-4-(3-(1-acryloylpyrrolidin-2-yl)-8-aminoimidazo[1,5-a]pyrazin-1-yl)-N-(4-(trifluoromethyl)pyridin-2-yl)benzamide] | ≥ 1000 | – | – | 0.1 to 1 | <1 | ≥ 1000 | – | – | < 10 | – | ≥ 1000 | –
CC#CC(=O)N1CCCC[C@H]1c1nc(-c2ccc(C(=O)Nc3cc(C(F)(F)F)ccn3)cc2)c2c(N)nccn12 [Example 63, (S)-4-(8-amino-3-(1-but-2-ynoylpiperidin-2-yl)imidazo[1,5-a]pyrazin-1-yl)-N-(4-(trifluoromethyl)pyridin-2-yl)benzamide] | ≥ 1000 | – | – | – | – | ≥ 1000 | – | – | < 10 | ≥ 1 | ≥ 1000 | –
CC#CC(=O)N1CCCC[C@H]1c1nc(-c2ccc(C(=O)Nc3cc(CCC)ccn3)cc2)c2c(N)nccn12 [Example 64, (S)-4-(8-amino-3-(1-but-2-ynoylpiperidin-2-yl)imidazo[1,5-a]pyrazin-1-yl)-N-(4-propylpyridin-2-yl)benzamide] | ≥ 1000 | – | – | 0.1 to 1 | <1 | ≥ 1000 | – | – | < 10 | – | ≥ 1000 | –
CC(C)c1ccnc(NC(=O)c2ccc(-c3nc([C@@H]4CCCN4C(=O)/C=C/CN(C)C)n4ccnc(N)c34)cc2)c1 [Example 65, (S,E)-4-(8-amino-3-(1-(4-(dimethylamino)but-2-enoyl)pyrrolidin-2-yl)imidazo[1,5-a]pyrazin-1-yl)-N-(4-isopropylpyridin-2-yl)benzamide] | ≥ 1000 | – | – | – | – | ≥ 1000 | – | – | < 10 | ≥ 1 | ≥ 1000 | –
C=CS(=O)(=O)N1CCCC[C@H]1c1nc(-c2ccc(C(=O)Nc3ccccn3)cc2C)c2c(N)nccn12 [Example 66, 4-(8-amino-3-((S)-1-(vinylsulfonyl)piperidin-2-yl)imidazo[1,5-a]pyrazin-1-yl)-3-methyl-N-(pyridin-2-yl)benzamide] | ≥ 1000 | – | – | – | – | ≥ 1000 | – | – | < 10 | ≥ 1 | ≥ 1000 | –
CC#CC(=O)N1CCCC[C@H]1c1nc(-c2ccc(C(=O)Nc3cc(CCC)ccn3)c(F)c2)c2c(N)nccn12 [Example 67, (S)-4-(8-amino-3-(1-but-2-ynoylpiperidin-2-yl)imidazo[1,5-a]pyrazin-1-yl)-2-fluoro-N-(4-propylpyridin-2-yl)benzamide] | ≥ 1000 | – | – | – | – | ≥ 1000 | – | – | < 10 | ≥ 1 | ≥ 1000 | –
C=CC(=O)N1CCCC[C@H]1c1nc(-c2ccc(C(=O)Nc3ccccn3)cc2C)c2c(N)nccn12 [Example 68, 4-(3-((S)-1-acryloylpiperidin-2-yl)-8-aminoimidazo[1,5-a]pyrazin-1-yl)-3-methyl-N-(pyridin-2-yl)benzamide] | ≥ 1000 | 100 to 1000 | – | – | – | ≥ 1000 | – | – | – | ≥ 1 | ≥ 1000 | <1000
CN(C)C/C=C/C(=O)NCc1nc(-c2ccc(C(=O)Nc3ccccn3)cc2)c2c(N)nccn12 [Example 69, (E)-4-(8-amino-3-((4-(dimethylamino)but-2-enamido)methyl)imidazo[1,5-a]pyrazin-1-yl)-N-(pyridin-2-yl)benzamide] | ≥ 1000 | 10 to 100 | <100 | – | – | ≥ 1000 | – | – | – | ≥ 1 | ≥ 1000 | –
CC(C)c1ccnc(NC(=O)c2ccc(-c3nc([C@@H]4CCCN4C(=O)c4ccnc(Cl)n4)n4ccnc(N)c34)cc2)c1 [Example 70, (S)-4-(8-amino-3-(1-(2-chloropyrimidine-4-carbonyl)pyrrolidin-2-yl)imidazo[1,5-a]pyrazin-1-yl)-N-(4-isopropylpyridin-2-yl)benzamide] | ≥ 1000 | 10 to 100 | <100 | – | – | ≥ 1000 | – | – | – | ≥ 1 | ≥ 1000 | –
Nc1nccn2c([C@@H]3CCCN3C(=O)c3ccnc(Cl)n3)nc(-c3ccc(C(=O)Nc4nc5c(s4)CCCC5)cc3)c12 [Example 71, (S)-4-(8-amino-3-(1-(2-chloropyrimidine-4-carbonyl)pyrrolidin-2-yl)imidazo[1,5-a]pyrazin-1-yl)-N-(4,5,6,7-tetrahydrobenzo[d]thiazol-2-yl)benzamide] | ≥ 1000 | 10 to 100 | <100 | – | – | ≥ 1000 | – | – | – | ≥ 1 | ≥ 1000 | –
COC/C=C/C(=O)N1CCCC[C@H]1c1nc(-c2ccc(C(=O)Nc3cccnn3)cc2)c2c(N)nccn12 [Example 72, (S,E)-4-(8-amino-3-(1-(4-methoxybut-2-enoyl)piperidin-2-yl)imidazo[1,5-a]pyrazin-1-yl)-N-(pyridazin-3-yl)benzamide] | ≥ 1000 | 100 to 1000 | – | – | – | ≥ 1000 | – | – | – | ≥ 1 | ≥ 1000 | <1000
CN(C)C/C=C/C(=O)N1CCCC[C@H]1c1nc(-c2ccc(C(=O)Nc3cccnn3)cc2)c2c(N)nccn12 [Example 73, (S,E)-4-(8-amino-3-(1-(4-(dimethylamino)but-2-enoyl)piperidin-2-yl)imidazo[1,5-a]pyrazin-1-yl)-N-(pyridazin-3-yl)benzamide] | ≥ 1000 | 10 to 100 | <100 | – | – | ≥ 1000 | – | – | – | ≥ 1 | ≥ 1000 | –
Nc1nccn2c([C@@H]3CCCCN3C(=O)c3ccnc(Cl)n3)nc(-c3ccc(C(=O)Nc4cccnn4)cc3)c12 [Example 74, (S)-4-(8-amino-3-(1-(2-chloropyrimidine-4-carbonyl)piperidin-2-yl)imidazo[1,5-a]pyrazin-1-yl)-N-(pyridazin-3-yl)benzamide] | ≥ 1000 | 100 to 1000 | – | – | – | ≥ 1000 | – | – | – | ≥ 1 | ≥ 1000 | <1000
COC/C=C/C(=O)N(C)[C@@H](C)c1nc(-c2ccc(C(=O)Nc3cc(C(F)(F)F)ccn3)cc2)c2c(N)nccn12 [Example 75, (S,E)-4-(8-amino-3-(1-(4-methoxy-N-methylbut-2-enamido)ethyl)imidazo[1,5-a]pyrazin-1-yl)-N-(4-(trifluoromethyl)pyridin-2-yl)benzamide] | ≥ 1000 | – | – | – | – | ≥ 1000 | – | – | < 10 | ≥ 1 | ≥ 1000 | –
CCCc1ccnc(NC(=O)c2ccc(-c3nc([C@H](C)N(C)C(=O)/C=C/CN(C)C)n4ccnc(N)c34)cc2)c1 [Example 76, (S,E)-4-(8-amino-3-(1-(4-(dimethylamino)-N-methylbut-2-enamido)ethyl)imidazo[1,5-a]pyrazin-1-yl)-N-(4-propylpyridin-2-yl)benzamide] | ≥ 1000 | – | – | 0.1 to 1 | <1 | ≥ 1000 | – | – | < 10 | – | ≥ 1000 | –
CCCc1ccnc(NC(=O)c2ccc(-c3nc([C@@H]4CCCN4C(=O)/C=C/CN4CCCC4)n4ccnc(N)c34)cc2)c1 [Example 77, (S,E)-4-(8-amino-3-(1-(4-(pyrrolidin-1-yl)but-2-enoyl)pyrrolidin-2-yl)imidazo[1,5-a]pyrazin-1-yl)-N-(4-propylpyridin-2-yl)benzamide] | ≥ 1000 | – | – | – | – | ≥ 1000 | – | – | < 10 | ≥ 1 | ≥ 1000 | –
CN(C)C/C=C/C(=O)N1CCCC[C@H]1c1nc(-c2ccc(C(=O)Nc3ccccn3)cc2)c2c(N)nccn12 [Example 78, (S,E)-4-(8-amino-3-(1-(4-(dimethylamino)but-2-enoyl)piperidin-2-yl)imidazo[1,5-a]pyrazin-1-yl)-N-(pyridin-2-yl)benzamide] | ≥ 1000 | – | – | – | – | ≥ 1000 | – | – | < 10 | ≥ 1 | ≥ 1000 | –
